Experimental data: article PMC7589326, “Synthesis and Pharmacological Evaluation of Fluorinated Quinoxaline‐Based κ‐Opioid Receptor (KOR) Agonists Designed for PET Studies” (Chemmedchem, 2020)
Read-outs that look alike come from different tables or passages of the source.

Legend:
[1] = target: T1, KOR (Cavia porcellus, UniProt P41144); test: biochemical; assay type: binding, guinea pig
T1 construct: The thawed guinea pig brain membrane preparation (about 100 μg of the protein) was incubated; tissue Harlan-Winkelmann, Borchen, Germany; host or cells: guinea pig brain membrane homogenate
T1 sequence (P41144 whole entry): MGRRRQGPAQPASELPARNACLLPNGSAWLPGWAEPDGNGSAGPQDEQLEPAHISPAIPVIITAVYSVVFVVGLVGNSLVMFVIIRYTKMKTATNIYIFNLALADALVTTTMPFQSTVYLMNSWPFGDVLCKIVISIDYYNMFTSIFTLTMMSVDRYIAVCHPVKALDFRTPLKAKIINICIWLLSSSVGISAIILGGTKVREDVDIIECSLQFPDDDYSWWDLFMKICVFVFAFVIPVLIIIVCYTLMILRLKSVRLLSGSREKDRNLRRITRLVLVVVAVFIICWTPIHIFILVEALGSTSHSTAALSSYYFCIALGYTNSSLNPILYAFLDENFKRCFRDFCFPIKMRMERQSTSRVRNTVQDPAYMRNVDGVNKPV

[2] = target: T2, MOR (Cavia porcellus, UniProt A0ACM8Q262); test: biochemical; assay type: binding, guinea pig; details: for inhibition at 1 µM: read-out: % inhibition at 1 μM MOR [3H]DAMGO
T2 sequence (A0ACM8Q262 1-400): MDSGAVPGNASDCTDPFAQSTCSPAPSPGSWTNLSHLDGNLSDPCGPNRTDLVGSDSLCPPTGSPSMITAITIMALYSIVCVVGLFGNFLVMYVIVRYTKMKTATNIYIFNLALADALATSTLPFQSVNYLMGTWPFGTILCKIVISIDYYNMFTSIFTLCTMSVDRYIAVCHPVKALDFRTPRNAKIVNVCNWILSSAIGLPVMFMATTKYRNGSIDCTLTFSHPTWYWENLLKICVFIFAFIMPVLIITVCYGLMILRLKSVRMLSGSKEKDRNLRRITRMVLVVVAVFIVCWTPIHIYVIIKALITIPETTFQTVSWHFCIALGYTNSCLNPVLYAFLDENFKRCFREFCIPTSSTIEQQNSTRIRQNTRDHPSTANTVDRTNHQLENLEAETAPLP

[3] = target: T3, σ2 receptor (Rattus norvegicus, UniProt Q5U3Y7); test: biochemical; assay type: binding; details: for inhibition at 1 µM: read-out: % inhibition at 1 μM σ2 [3H]DTG
T3 construct: tissue Harlan-Winkelmann, Borchen, Germany; host or cells: rat liver membrane homogenate
T3 sequence (Q5U3Y7 1-176): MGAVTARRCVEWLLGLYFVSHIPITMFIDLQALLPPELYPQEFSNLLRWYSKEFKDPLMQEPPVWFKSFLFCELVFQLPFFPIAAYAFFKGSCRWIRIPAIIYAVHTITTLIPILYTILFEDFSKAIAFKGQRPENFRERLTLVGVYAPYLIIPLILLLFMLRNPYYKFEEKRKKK

[4] = target: T4, DOR (Rattus norvegicus, UniProt P33533); test: biochemical; assay type: binding; details: for inhibition at 1 µM: read-out: % inhibition at 1 μM DOR [3H]DPDPE
T4 construct: preparations from rat brain were employed in the DOR assay; tissue Harlan-Winkelmann, Borchen, Germany; host or cells: rat brain (Sprague Dawley) membrane homogenate
T4 sequence (P33533 whole entry): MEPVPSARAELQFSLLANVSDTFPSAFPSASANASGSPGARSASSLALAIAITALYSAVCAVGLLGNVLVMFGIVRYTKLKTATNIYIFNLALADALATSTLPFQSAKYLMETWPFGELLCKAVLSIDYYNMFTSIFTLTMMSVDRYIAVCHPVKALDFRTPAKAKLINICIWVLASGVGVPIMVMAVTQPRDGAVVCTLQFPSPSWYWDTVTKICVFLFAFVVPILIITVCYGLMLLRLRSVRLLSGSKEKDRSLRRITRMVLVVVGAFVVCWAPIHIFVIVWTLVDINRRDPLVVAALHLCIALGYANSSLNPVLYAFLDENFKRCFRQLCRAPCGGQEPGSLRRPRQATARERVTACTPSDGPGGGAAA

[5] = target: T5, σ1 receptor (Cavia porcellus, UniProt Q60492); test: biochemical; assay type: binding, guinea pig; details: read-out: % inhibition at 1 μM σ1 (+)-[3H]pentazocine
T5 construct: Membrane preparations from guinea pig brain were used in the MOR and σ1 assay; tissue Harlan-Winkelmann, Borchen, Germany; host or cells: guinea pig brain membrane homogenate
T5 sequence (Q60492 whole entry): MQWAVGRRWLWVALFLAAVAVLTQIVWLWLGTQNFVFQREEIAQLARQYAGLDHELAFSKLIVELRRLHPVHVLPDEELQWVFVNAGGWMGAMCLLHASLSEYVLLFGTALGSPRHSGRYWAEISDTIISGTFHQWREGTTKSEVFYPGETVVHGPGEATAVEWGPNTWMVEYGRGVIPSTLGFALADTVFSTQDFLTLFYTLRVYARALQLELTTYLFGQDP

[6] = Stability in human serum (radio-HPLC); assay type: in vitro ADME; details: 90 min, 37 °C
Protocol: (§1) Enzymes present in blood serum could be able to transform the radioactive PET tracer [^18F]‐2. Therefore, the blood serum stability of [^18F]‐2 was investigated before testing the tracer in vivo. [^18F]‐2 was incubated with mouse and human serum for 90 min at 37 °C.
(§2) The serum stability of radioligands [^18F]‐2 and [^18F]‐14c was evaluated by incubation in mouse or human serum at 37 °C for up to 90 min. An aliquot of formulated [^18F]‐2 or [^18F]‐14c (20 μL, ca. 6.6 MBq and ca.10 MBq, respectively) was added to a sample of mouse serum (200 μL) or human serum (200 μL), and the mixtures were incubated at 37 °C. Samples of 20 μL each were taken after periods of 10, 30, 60 and 90 min and ice‐cold DNA‐grade CH3CN (100 μL) were added. After centrifugation for ≥5 min, the supernatant was analyzed by analytical radio‐HPLC B, method B.

[7] = Stability in mouse serum (radio-HPLC); assay type: in vitro ADME; details: 90 min, 37 °C
Protocol: as §1, §2

[8] = In vivo biodistribution, small animal PET in C57BL/6 mice; design: species or system mouse
Protocol: Next, the distribution of the PET tracer [^18F]‐2 in mice was investigated. For this purpose, [^18F]‐2 was injected into 15‐week‐old C57BL/6 mice. […] Already after 2 min the radioactivity was almost completely found in liver, kidneys and bladder. In the liver, the radioactivity remained almost constant over the period of 90 min (Figure 6). Besides a transient local increase in radioactivity in the submandibular and harderian glands, no significant accumulation of [^18F]‐2 in non‐excreting organs such as heart, lung and muscles as indicator for unspecific binding could be detected.
Adult C57BL/6 mice (n=2 male, 15 weeks, 28 g for [^18F]‐2; n=2, male, 10 weeks, 25 g for [^18F]‐14c) were anesthetized by isoflurane/O2 and one lateral tail vein was cannulated BY using a 27 G needle connected to 15 cm polyethylene catheter tubing. Radiotracers (∼500 kBq/g bodyweight, 15 MBq) were injected as a bolus (50 μL compound flushed with 100 μL saline) via the tail vein and subsequent PET scanning was performed.
Small Animal PET Scanning. PET experiments were carried out using a submillimeter high resolution (0.7 mm full width at half‐maximum) small animal scanner (32 module quadHIDAC, Oxford Positron Systems Ltd., Oxford, UK) with uniform spatial resolution (<1 mm) over a large cylindrical field (165 mm diameter, 280 mm axial length). List‐mode data were acquired for 90 min and reconstructed into dynamic time frames using an iterative reconstruction algorithm. Subsequently, the scanning bed was transferred to the computed tomography (CT) scanner (Inveon, Siemens Medical Solutions, U.S.), and a CT acquisition with a spatial resolution of 80 μm was performed for each mouse. Reconstructed image data sets were coregistered based on extrinsic markers attached to the multimodal scanning bed and the in‐house developed image analysis software MEDgical. Three‐dimensional volumes of interest (VOIs) were defined over the respective organs in CT data sets, transferred to the coregistered PET data, and analyzed quantitatively. Regional uptake was calculated as percentage of injected dose by dividing counts per milliliter in the VOI by total counts in the mouse multiplied by 100 (%ID/mL).

[9] = Distribution coefficient logD7.4, shake flask method with radioligand; assay type: physicochemical
Protocol: The distribution coefficient at pH 7.4 (logD7.4) was determined by a shake flask method using the radioligand [^18F]‐2. After distribution of [^18F]‐2 between n‐octanol and phosphate buffered saline (pH 7.4) layers, the radioactivity in both layers was determined and set in ratio. According to this procedure, a logD7.4 value of 1.37±0.06 was determined indicating a moderate lipophilic compound, which should be able to penetrate into the central nervous system.
The lipophilicity of radioligands [^18F]‐2 and [^18F]‐14c was assessed by determination of the water n‐octan‐1‐ol distribution coefficient (logD) following a published procedure.57 In brief, approximately 3.2 MBq of radioligand [^18F]‐2 and approximately 0.3 MBq of radiotracer [^18F]‐14c, respectively, were mixed with equal amounts (0.6 mL) of phosphate buffered saline (PBS, pH 7.4) and n‐octan‐1‐ol. The resulting biphasic system was mixed vigorously for 3 min at room temperature and subsequently, the tubes were centrifuged (≥5 min). Then 400 μL of the n‐octan‐1‐ol layer was separated and 400 μL of PBS were added. The mixture was mixed vigorously for 10 min at room temperature followed by centrifugation of the tubes for≥5 min. Two samples of 100 μL of each layer were counted in a γ‐counter (2480 Automatic Gamma Counter Wizard^2, Perkin‐Elmer). The distribution coefficient was determined by calculating the ratio cpm(n‐octan‐1‐ol)/cpm(PBS) and expressed as logD 7.4 (log(cpmn‐octanol/cpmPBS)). Three independent experiments were performed in duplicate and data were provided as mean values ±standard deviation.

[10] = target: T5, σ1 receptor; details: cited from earlier work
[11] = target: T2, MOR; details: cited from earlier work
[12] = target: T3, σ2 receptor; details: cited from earlier work
[13] = tested on: human DCs; assay type: cell-based
[14] = target: T6, KOR (Homo sapiens, UniProt P41145); test: cell-based; design: expressed in transfected cells; host or cells: HEK 293T (ATCC CRL-11268)
Target sequence in this assay (P41145 whole entry): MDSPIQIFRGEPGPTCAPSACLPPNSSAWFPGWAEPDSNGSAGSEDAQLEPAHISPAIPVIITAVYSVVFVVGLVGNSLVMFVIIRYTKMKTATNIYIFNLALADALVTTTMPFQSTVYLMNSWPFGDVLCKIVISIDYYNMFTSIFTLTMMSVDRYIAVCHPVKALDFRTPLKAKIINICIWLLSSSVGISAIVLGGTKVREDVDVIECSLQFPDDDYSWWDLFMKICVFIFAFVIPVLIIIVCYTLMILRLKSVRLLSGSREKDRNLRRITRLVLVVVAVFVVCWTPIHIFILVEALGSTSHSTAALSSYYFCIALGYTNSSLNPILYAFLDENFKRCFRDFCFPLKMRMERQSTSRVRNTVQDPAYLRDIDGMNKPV

[15] = tested on: mouse DCs (wild-type); assay type: cell-based
[16] = tested on: DCs from KOR-deficient mice; assay type: cell-based, mouse
[17] = target: T6, KOR; test: cell-based; design: expressed in transfected cells; host or cells: HTLA cells (stably expressing TEV-fused β-arrestin2)
Target sequence in this assay (P41145 whole entry): as above
Target sequence in this assay (P32121 whole entry partner): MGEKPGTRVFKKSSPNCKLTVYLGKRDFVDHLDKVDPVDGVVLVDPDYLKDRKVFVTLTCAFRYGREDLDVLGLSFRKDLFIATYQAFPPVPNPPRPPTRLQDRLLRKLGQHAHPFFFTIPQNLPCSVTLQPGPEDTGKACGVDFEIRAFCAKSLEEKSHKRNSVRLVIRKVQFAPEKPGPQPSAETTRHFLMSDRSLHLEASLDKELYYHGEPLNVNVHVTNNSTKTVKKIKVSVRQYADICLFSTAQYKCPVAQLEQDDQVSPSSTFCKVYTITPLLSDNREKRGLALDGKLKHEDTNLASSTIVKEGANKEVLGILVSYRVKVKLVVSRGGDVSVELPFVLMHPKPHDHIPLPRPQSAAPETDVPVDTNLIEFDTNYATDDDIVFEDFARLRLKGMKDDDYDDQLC

[18] = tested on: mouse T cells (wild-type); assay type: cell-based
[19] = tested on: T cells from KOR-deficient mice; assay type: cell-based, mouse
[20] = tested on: human T cells; assay type: cell-based

CC(C)(C)OC(=O)N1CCN(C(=O)Cc2ccc(Cl)c(Cl)c2)[C@@H]2[C@@H](N3CC[C@H](O)C3)CCC[C@@H]21 (mixture of isomers) [12a, tert‐Butyl (4aR,5S,8aS)‐ and (4aS,5R,8aR)‐4‐[2‐(3,4‐dichlorophenyl)acetyl]‐5‐[(S)‐3‐hydroxypyrrolidin‐1‐yl]‐3,4,4 a,5,6,7,8,8 a‐octahydroquinoxaline‐1(2H)‐carboxylate]
Ki ([1]; Ki±SEM KOR [3H]U-69,593): 16 ± 2 nM | inhibition at 1 µM [2]: 9% | inhibition at 1 µM [3]: 0% | inhibition at 1 µM [4]: 5% | inhibition at 1 µM [5]: 0%

DAMGO [reference compound]
Kd ([2]; read-out: Kd-value of radioligand, MOR assay): 0.57 nM

COC(=O)N1CCN(C(=O)Cc2ccc(Cl)c(Cl)c2)[C@@H]2[C@@H](N3CC[C@@H]([18F])C3)CCC[C@@H]21 [[^18F]‐14c, Methyl (4aR,5S,8aS)‐ and (4aS,5R,8aR)‐4‐[2‐(3,4‐dichlorophenyl)acetyl]‐5‐[(R)‐3‐[^18F]fluoropyrrolidin‐1‐yl]‐3,4,4 a,5,6,7,8,8 a‐octahydroquinoxaline‐1(2H)‐carboxylate]
stability in human serum [6]: high stability | stability in mouse serum [7]: high stability | residual radioactivity in organs ex vivo (γ-counter) ([8]; 90 min after injection): mainly present in the excretion organs and in the urine | radioactivity in the bones / defluorination ([8]; C57BL/6 mice, intravenous injection): fast defluorination | clearance from the body ([8]; C57BL/6 mice, intravenous injection, hepatic and renal pathways): fast | concentration in the n-octanol layer relative to [18F]-2 ([9]; n-octanol / PBS pH 7.4): 15 fold | logD ([9]; n-octanol / phosphate buffered saline pH 7.4): 2.54 ± 0.22

COC(=O)N1CCN(C(=O)Cc2ccc(Cl)c(Cl)c2)[C@@H]2[C@@H](N3CCCC3)CCC[C@@H]21 [1c]
% inhibition at 1 μM σ1 (+)-[3H]pentazocine [10]: 0% | % inhibition at 1 μM MOR [3H]DAMGO [11]: 0% | % inhibition at 1 μM σ2 [3H]DTG [12]: 8%

COC(=O)N1CCN(C(=O)Cc2ccc(Cl)c(Cl)c2)[C@@H]2[C@@H](N3CC[C@H](O)C3)CCC[C@@H]21 (mixture of isomers) [12c, Methyl (4aR,5S,8aS)‐ and (4aS,5R,8aR)‐4‐[2‐(3,4‐dichlorophenyl)acetyl]‐5‐[(S)‐3‐hydroxypyrrolidin‐1‐yl]‐3,4,4 a,5,6,7,8,8 a‐octahydroquinoxaline‐1(2H)‐carboxylate]
expression of CD11c and production of IFN-γ in human DCs [13]: reduced | Ki ([1]; Ki±SEM KOR [3H]U-69,593): 9.2 ± 6 nM | inhibition at 1 µM [2]: 5% | EC50 [14]: 0.19 nM | Emax ([14]; HEK-293T, read-out: cAMP E max): 100% | expression of maturation marker CD11c and IFN-γ production [15]: significantly reduced | anti-inflammatory effect (CD11c, IFN-γ) in DCs from KOR-deficient mice [16]: completely abrogated | inhibition at 1 µM [3]: 5% | EC50 [17]: 8.8 nM | Emax ([17]; HTLA, read-out: β-Arrestin-2 E max): 82% | Ki [4]: 693 nM | expression of surface activation markers CD25, CD44 and CD69 and IFN-γ production [18]: did not modulate the activation status | inhibition at 1 µM [5]: 0%

CC(C)(C)OC(=O)N1CCN(C(=O)Cc2ccc(Cl)c(Cl)c2)[C@@H]2[C@@H](N3CCCC3)CCC[C@@H]21 [1a]
% inhibition at 1 μM σ1 (+)-[3H]pentazocine [10]: 12% | Ki ([11]; read-out: Ki MOR [3H]DAMGO): 260 nM | % inhibition at 1 μM σ2 [3H]DTG [12]: 16%

COC(=O)N1CCN(C(=O)Cc2ccc(Cl)c(Cl)c2)[C@@H]2[C@@H](N3CC[C@@H](F)C3)CCC[C@@H]21 (mixture of isomers) [14c, Methyl (4aR,5S,8aS)‐ and (4aS,5R,8aR)‐4‐[2‐(3,4‐dichlorophenyl)acetyl]‐5‐[(R)‐3‐fluoropyrrolidin‐1‐yl]‐3,4,4 a,5,6,7,8,8 a‐ octahydroquinoxaline‐1(2H)‐carboxylate]
expression of CD11c and production of IFN-γ in human DCs [13]: reduced | Ki [1]: 0.82 ± 0.69 nM | selectivity over the related MOR, DOR and σ receptors [1]: more than 1000 fold | inhibition at 1 µM [2]: 0% | expression of maturation marker CD11c and IFN-γ production [15]: significantly reduced | anti-inflammatory effect (CD11c, IFN-γ) in DCs from KOR-deficient mice [16]: completely abrogated | Ki [3]: 962 nM | expression of activation markers or cytokine release in T cells from KOR-deficient mice [19]: did not result in an altered expression | inhibition at 1 µM [4]: 12% | IL-10 induction [20]: only slightly but not significantly induced | expression of surface activation markers CD25 and CD69 and IFN-γ secretion [20]: significantly reduce | anti-inflammatory cytokine IL-10 in cell cultures [18]: significant upregulation | expression of surface activation markers CD25, CD44 and CD69 and IFN-γ production [18]: significantly reducing | inhibition at 1 µM [5]: 8%
